Measurements published in patent publication US5013722A, “Cholecystokinin analogs for controlling appetite” (Hoffmann-LaRoche Inc., priority 1989, dated 1991).
pIC50: −log10 of the molar value. Where a SMILES comes first, the peptide text is derived from it. Where no end group is shown, it is not given here. [ ]: non-standard residue; d: D form. The star is where a group is joined. Thr(SO3H) = C[C@@H](OS(=O)(=O)O)[C@H](N)C(=O)O; sY = N[C@@H](Cc1ccc(OS(=O)(=O)O)cc1)C(=O)O; NMeF = CN[C@@H](Cc1ccccc1)C(=O)O; Nle = CCCC[C@H](N)C(=O)O; For = O=C*

How the values were obtained:
[1] = tested on: rat and monkey, satiety; conditions: cited from earlier work
[2] = target: T1, receptors in bovine striatum (3H-CCK-8-(SO3 H) binding, central receptor) (Bos taurus, UniProt P79266); test: In vitro receptor binding assay, bovine striatum homogenate, 3H-CCK-8-(SO3H) radioligand; conditions: 0.15 nM radioligand, 30 min, 25° C.; read-out: Bovine Striatum IC50 (inhibition of specific 3H-CCK-8-(SO3H) binding)
T1 construct: receptors in homogenized preparations of rat pancreatic cells and bovine striata; from tissue; host or cells: bovine striatum homogenate (48,000 x g pellet)
T1 sequence (P79266 1-454): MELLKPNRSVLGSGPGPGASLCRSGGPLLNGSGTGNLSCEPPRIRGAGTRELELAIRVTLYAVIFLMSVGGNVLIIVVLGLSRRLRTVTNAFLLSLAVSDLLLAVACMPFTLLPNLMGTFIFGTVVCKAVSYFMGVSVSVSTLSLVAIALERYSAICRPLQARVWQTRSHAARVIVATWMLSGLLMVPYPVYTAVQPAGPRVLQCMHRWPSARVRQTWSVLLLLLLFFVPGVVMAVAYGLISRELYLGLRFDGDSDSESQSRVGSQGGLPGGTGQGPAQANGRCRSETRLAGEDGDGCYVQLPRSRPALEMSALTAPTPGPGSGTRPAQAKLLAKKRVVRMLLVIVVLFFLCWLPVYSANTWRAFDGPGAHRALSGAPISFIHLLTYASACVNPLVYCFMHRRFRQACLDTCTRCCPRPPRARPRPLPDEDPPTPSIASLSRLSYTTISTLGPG
Experimental: Frozen bovine striatum (approx. 5 g) and fresh rat pancreas (approx. 5 g) cleaned of fat and extraneous tissue were homogenized in HEPES buffer #1 (10 mM HEPES+130 mM NaCl+5 mM MgCl2. pH 7.4) using 35 parts buffer per 1 part tissue on a wet weight/volume basis (approx. 175 ml). The tissue was homogenized 2 x for approx. 15 sec. at 0° C. using a Polytron homogenizer at a setting of 6. The tissue was isolated by centrifugation at 48,000 x g for 10 min. at 0° C. The resulting tissue pellet was resuspended in HEPES buffer #2 (10 mM HEPES+130 mM NaCl+5 mM MgCl2 +1 mg/L phenylmethanesulfonyl fluoride (PMSF)+200 mg/L Bacitracin): 1 part striatal tissue (original wet weight) per 80 parts buffer and 1 part pancreas tissue (original wet weight) per 70 parts buffer.
Incubation was initiated by combining various concentrations of native CCK-8 or peptides of formula I, II and III with ^3 H-CCK-8-(SO3 H) (final conc.=0.15 nM) and tissue homogenate (striatum 0.26 mg protein in 2 ml final volume; pancreas 0.165 mg protein in 1 ml final volume). Samples were incubated for 30 min. at 25° C. and the incubation terminated by pouring the mixture onto a pre-wet Whatman GF/B filter on a Sandbeck Vacuum Filtration Manifold. The incubation tubes were washed with 2×3 ml of ice-cold HEPES Buffer #2 and the wash filtered through the GF/B filter. The filter was air dried for 10 min. and then placed in a scintillation vial with 12 ml of Beckman HP/b Ready-Solv scintillation cocktail. The vials were shaken for 2 hours and then counted using a Beckman Model 7800 liquid scintillation spectrometer. Non-specific binding was determined in the presence of 1 micromole native CCK-8 and subtracted from all samples to determine specific binding. The concentration of ^3 peptide necessary to inhibit 50% of total specific H-CCK-8-(SO3 H) binding (IC50 value) was determined by log-probit analysis.

[3] = target: T2, receptors in rat pancreas (3H-CCK-8-(SO3 H) binding) (Rattus norvegicus, UniProt P30551); test: In vitro receptor binding assay, rat pancreas homogenate, 3H-CCK-8-(SO3H) radioligand
T2 construct: receptors in homogenized preparations of rat pancreatic cells and bovine striata; from tissue; host or cells: rat pancreas homogenate (48,000 x g pellet)
T2 sequence (P30551 1-444): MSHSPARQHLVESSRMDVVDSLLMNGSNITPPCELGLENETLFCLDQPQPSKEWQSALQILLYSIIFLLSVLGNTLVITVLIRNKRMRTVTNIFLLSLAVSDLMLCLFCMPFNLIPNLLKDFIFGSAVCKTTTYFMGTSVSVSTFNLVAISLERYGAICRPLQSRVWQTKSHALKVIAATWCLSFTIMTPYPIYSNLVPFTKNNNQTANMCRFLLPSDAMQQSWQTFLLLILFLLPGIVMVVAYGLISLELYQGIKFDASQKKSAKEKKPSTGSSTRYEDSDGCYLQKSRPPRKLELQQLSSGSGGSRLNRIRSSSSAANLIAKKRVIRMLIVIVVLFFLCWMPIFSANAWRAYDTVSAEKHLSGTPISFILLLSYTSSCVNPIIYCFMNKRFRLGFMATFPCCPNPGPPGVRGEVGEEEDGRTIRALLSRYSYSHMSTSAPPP
Experimental: This strategy was utilized to minimize central nervous system side effects by identifying peptides with peripheral receptor selectivity. […] The tissue was homogenized 2 x for approx. 15 sec. at 0° C. using a Polytron homogenizer at a setting of 6. The tissue was isolated by centrifugation at 48,000 x g for 10 min. at 0° C. […] Samples were incubated for 30 min. at 25° C. and the incubation terminated by pouring the mixture onto a pre-wet Whatman GF/B filter on a Sandbeck Vacuum Filtration Manifold. The incubation tubes were washed with 2×3 ml of ice-cold HEPES Buffer #2 and the wash filtered through the GF/B filter. The filter was air dried for 10 min. and then placed in a scintillation vial with 12 ml of Beckman HP/b Ready-Solv scintillation cocktail. The vials were shaken for 2 hours and then counted using a Beckman Model 7800 liquid scintillation spectrometer.

[4] = tested on: Male Sprague-Dawley (CD) rats, food intake; test: Two-meal feeding assay, intraperitoneal administration; type: in vivo, rat; conditions: 32 microgm/Kg i.p., mean ± SEM; for Food Intake 1st Meal: 15 min before first meal
Experimental: (§1) Male Sprague-Dawley (CD) rats weighing 180-200 grams (Charles River Breeding Laboratories) were acclimated to a 12 h light/dark cycle (6 a.m. to 6 p.m.) in a room kept at 22° C. They were subsequently fasted for two days, weighed, placed in individual cages, and a four-day period of meal training was begun. During this time the rats were given ground laboratory chow (Purina Lab Chow) in jars for one hour from 9:00 a.m. until 10:00 a.m., the jars were removed from 10:00 a.m. to 12:00 p.m., and placed back in the cages from 12:00 until 1:00 p.m. Under this `1-2-1` meal feeding regime most rats learn to eat approximately as much Per day during the two hours they have access to food as rats which have food ad libitum over the entire 24-hour day. On the fourth day, the rats were weighed again, and any which lost more than five grams body weight were excluded from the test. The animals were then distributed into experimental (n=5 to 6) and control groups (n=6-12). but not matched for body weight.
Peptides of the invention were suspended either in saline. if soluble, or in 1% gum arabic, if insoluble, at concentrations of 0 to 320 μg/ml/kg body weight and were administered intraperitonerally 15 min before the first meal on day 5 of meal feeding. The rats were then given their meals as they had been during the previous four days, and the food cups were weighed both before and after each meal to determine food consumption. Food intake was expressed as a mean and standard error of the mean in grams consumed or as a percent of control values for the various groups. The treated groups were compared to the control groups by t-test analysis. […]

[5] = target: T3, Rat kidney metalloendopeptidase (Rattus norvegicus, UniProt P07861); test: Degradation by rat kidney metalloendopeptidase (HPLC); type: in vitro ADME; conditions: for % Degradation by Height: 37° C., pH 7.6
T3 construct: from tissue; host or cells: rat kidney
T3 sequence (P07861 1-750): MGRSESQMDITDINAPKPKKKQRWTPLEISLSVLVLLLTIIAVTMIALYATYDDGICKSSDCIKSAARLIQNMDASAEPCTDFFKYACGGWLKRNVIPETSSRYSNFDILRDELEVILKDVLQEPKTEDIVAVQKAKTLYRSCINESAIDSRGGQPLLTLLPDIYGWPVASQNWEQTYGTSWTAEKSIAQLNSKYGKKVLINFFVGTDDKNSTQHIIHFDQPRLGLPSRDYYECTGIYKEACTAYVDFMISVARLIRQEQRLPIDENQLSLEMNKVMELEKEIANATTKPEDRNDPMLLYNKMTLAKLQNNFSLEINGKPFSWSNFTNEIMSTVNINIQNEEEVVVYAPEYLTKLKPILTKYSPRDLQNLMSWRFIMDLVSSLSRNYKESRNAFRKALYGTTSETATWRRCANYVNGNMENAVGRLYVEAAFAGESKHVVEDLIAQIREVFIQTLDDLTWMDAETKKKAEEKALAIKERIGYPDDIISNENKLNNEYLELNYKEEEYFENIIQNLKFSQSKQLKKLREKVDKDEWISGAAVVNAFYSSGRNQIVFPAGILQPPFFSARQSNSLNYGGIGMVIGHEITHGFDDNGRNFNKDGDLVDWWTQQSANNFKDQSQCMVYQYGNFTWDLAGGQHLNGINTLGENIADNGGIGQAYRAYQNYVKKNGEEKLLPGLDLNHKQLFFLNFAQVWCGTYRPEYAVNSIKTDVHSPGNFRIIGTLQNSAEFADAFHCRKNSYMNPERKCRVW
Experimental: Rat kidney metalloendopeptidase (0.01 μg) and 5 nmol of peptide were incubated in 2 μmol tris-HCl buffer (pH 7.6) and at 37° C. for varying periods of time. The degradation of the peptide was monitored by analytical HPLC on a 5 micron Adsorbosphere-ODS column with a 0-50% CH3 CN gradient in 0.1N potassium phosphate, pH 3.0, with UV detection at 210 nm. Rates are based on presumed production of Asp-Tyr(SO3 H)-Met-Gly for CCK-8 and the presumed production of Ac-Tyr(SO3 H)-Met-Gly for Example 2 and 3.

[6] = tested on: Male rats, food intake; test: Two-meal feeding assay, intranasal administration; type: in vivo, rat
Experimental: as §1
Male rats were meal trained as described in Example 9. The peptide of Example 2 was dissolved in saline and was administered to the rats intranasally. CCK-8, dissolved in saline was used as a control.

[7] = tested on: lean and obese men, food intake; conditions: cited from earlier work
[8] = 1000 μg/kg intranasal, saline = 100

Row | Compound | Satiety after peripheral administration [1] | pIC50 [2] | pIC50 ([3]; 0.15 nM radioligand, 30 min, 25° C., read-out: Rat Pancreas IC50 (inhibition of specific 3H-CCK-8-(SO3H) binding)) | Food Intake 1st Meal [4] | Food Intake 2nd Meal [4] | % Degradation by Height ([5]; incubation 0 min) [%] | % Degradation by Height ([5]; incubation 60 min) [%] | % Degradation by Height ([5]; incubation 120 min) [%] | No. of Peaks (degradation products) ([5]; incubation 240 min) | % Degradation by Height ([5]; incubation 240 min) [%] | Binding selectivity, receptor sites in pancreas versus brain ([3]; rat pancreas vs bovine striatum) | Food Intake (activity in words) ([6]; 400 μg/kg intranasal) | Food Intake 1st meal Grams consumed ([6]; 1000 μg/kg intranasal) [Grams] | Food Intake 2nd meal Grams consumed ([6]; 1000 μg/kg intranasal) [Grams] | Food Intake 1st meal (%) [6, 8] [%] | Food Intake 2nd meal (%) [6, 8] [%] | % Degradation by Height ([5]; incubation 15 min) [%] | % Degradation by Height ([5]; incubation 30 min) [%] | No. of Peaks (degradation products) ([5]; incubation 60 min) | Food intake after infusion [7]
1 | Cholecystokinin (KAPSGRVSMIKNLQSLDPSHRISDRDYMGWMDF; ends and bridges not checked; UniProt P01356 70-102, looked up) [CCK, polypeptide hormone first isolated as a 33-amino acid peptide from the porcine gastrointestinal tract] | produce satiety in the rat and the monkey |  |  |  |  |  |  |  |  |  |  |  |  |  |  |  |  |  |  | 
2 | CCCC[C@H](NC(=O)[C@H](Cc1ccc(OS(=O)(=O)O)cc1)NC(C)=O)C(=O)N[C@H](C)C(=O)N[C@@H](Cc1cn(C=O)c2ccccc12)C(=O)N[C@@H](CCSC)C(=O)N[C@H](C(=O)N(C)[C@@H](Cc1ccccc1)C(N)=O)[C@@H](C)OS(=O)(=O)O [Example 3, Ac-Tyr-(SO3 H)-Nle-(D)Ala-Trp(For)-Met-Thr(SO3 H)-N-methyl-Phe-NH2] (Ac-[sY][Nle][dA]W(For)M[Thr(SO3H)][NMeF]-NH2) |  | 7.00 | 7.00 | 34 ± 6 % of Control | 164 ± 16 % of Control | 0 | 0 | 0 | 0 | 0 |  |  |  |  |  |  |  |  |  | 
3 | CSCC[C@H](NC(=O)[C@H](Cc1ccc(OS(=O)(=O)O)cc1)NC(=O)[C@@H](N)CC(=O)O)C(=O)NCC(=O)N[C@@H](Cc1c[nH]c2ccccc12)C(=O)N[C@@H](CCSC)C(=O)N[C@@H](CC(=O)O)C(=O)N[C@@H](Cc1ccccc1)C(N)=O [CCK-8, Asp--Tyr(SO3 H)--Met--Gly--Trp--Met--Asp--Phe--NH2, reference compound] |  |  |  | 27 ± 17 % of Control | 149 ± 6 % of Control | 0 | 69.7 |  |  |  | binds to receptor sites in the pancreas and brain | Inactive | 4.9 ± 0.7 | 6.3 ± 05 | 66 | 112 | 6.2 | 33.2 | 4 | decrease food intake in lean and obese men
